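Results reflect a 48-hour exposure of cells in 96-well plates to compound at five concentrations. At the GI50, growth is halved. TGI: total growth inhibition.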
Experiments:
Assay in all cases: NCI anticancer screen, dose series, 48 h
SNB-19 CNS = test system: SNB-19 CNS
OVCAR-3 ovarian = test system: OVCAR-3 ovarian
MDA-MB-435 = test system: MDA-MB-435
UACC-62 melanoma = test system: UACC-62 melanoma
HS 578T breast = test system: HS 578T breast
A549 NSCLC = test system: A549 NSCLC
786-0 renal = test system: 786-0 renal
HOP-92 NSCLC = test system: HOP-92 NSCLC
NCI-H460 lung = test system: NCI-H460 lung
SK-MEL-28 melanoma = test system: SK-MEL-28 melanoma
SK-MEL-5 melanoma = test system: SK-MEL-5 melanoma
SR leukemia = test system: SR leukemia
COLO 205 colon = test system: COLO 205 colon
HL-60(TB) leukemia = test system: HL-60(TB) leukemia
MALME-3M melanoma = test system: MALME-3M melanoma
MCF7 breast = test system: MCF7 breast
BT-549 breast = test system: BT-549 breast
HOP-62 NSCLC = test system: HOP-62 NSCLC
T-47D breast = test system: T-47D breast
SF-539 CNS = test system: SF-539 CNS
CCRF-CEM leukemia = test system: CCRF-CEM leukemia
LOX IMVI melanoma = test system: LOX IMVI melanoma
ACHN renal = test system: ACHN renal
UACC-257 melanoma = test system: UACC-257 melanoma
CAKI-1 renal = test system: CAKI-1 renal
SK-OV-3 ovarian = test system: SK-OV-3 ovarian
A498 renal = test system: A498 renal
TK-10 renal = test system: TK-10 renal
SNB-75 CNS = test system: SNB-75 CNS
NCI-H522 lung = test system: NCI-H522 lung
MDA-MB-231 breast = test system: MDA-MB-231 breast
IGROV1 ovarian = test system: IGROV1 ovarian
KM12 colon = test system: KM12 colon
SF-295 CNS = test system: SF-295 CNS
OVCAR-4 ovarian = test system: OVCAR-4 ovarian
OVCAR-8 ovarian = test system: OVCAR-8 ovarian
SF-268 CNS = test system: SF-268 CNS
HCT-116 colon = test system: HCT-116 colon
M14 melanoma = test system: M14 melanoma
MDA-MB-468 breast = test system: MDA-MB-468 breast
SK-MEL-2 melanoma = test system: SK-MEL-2 melanoma
HCT-15 colon = test system: HCT-15 colon
SN12C renal = test system: SN12C renal
EKVX NSCLC = test system: EKVX NSCLC
NCI/ADR-RES ovarian = test system: NCI/ADR-RES ovarian
NCI-H226 lung = test system: NCI-H226 lung
UO-31 renal = test system: UO-31 renal
RPMI-8226 leukemia = test system: RPMI-8226 leukemia
U251 CNS = test system: U251 CNS
OVCAR-5 ovarian = test system: OVCAR-5 ovarian
HCC-2998 colon = test system: HCC-2998 colon
HT29 colon = test system: HT29 colon
SW-620 colon = test system: SW-620 colon
NCI-H23 lung = test system: NCI-H23 lung
DU-145 prostate = test system: DU-145 prostate
PC-3 prostate = test system: PC-3 prostate
K-562 leukemia = test system: K-562 leukemia
RXF 393 renal = test system: RXF 393 renal
MOLT-4 leukemia = test system: MOLT-4 leukemia

COc1ccc2oc3c4[nH]c5ccccc5c4c4c(c3c2c1)C(=O)N(C(=O)OC(C)(C)C)C4=O
GI50 (SNB-19 CNS): 4.21 µM
TGI (SNB-19 CNS): > 100 µM
GI50 (OVCAR-3 ovarian): 3.72 µM
TGI (OVCAR-3 ovarian): 16.7 µM
GI50 (MDA-MB-435): 1.43 µM
TGI (MDA-MB-435): 18.3 µM
GI50 (UACC-62 melanoma): 2.4 µM
TGI (UACC-62 melanoma): 11.9 µM
GI50 (HS 578T breast): 2.5 µM
TGI (HS 578T breast): 12.4 µM
GI50 (A549 NSCLC): 2.84 µM
TGI (A549 NSCLC): 49.3 µM
GI50 (786-0 renal): 3.65 µM
TGI (786-0 renal): > 100 µM
GI50 (HOP-92 NSCLC): 2.64 µM
TGI (HOP-92 NSCLC): 41.3 µM
GI50 (NCI-H460 lung): 2.32 µM
TGI (NCI-H460 lung): > 100 µM
GI50 (SK-MEL-28 melanoma): 1.67 µM
TGI (SK-MEL-28 melanoma): 5.18 µM
GI50 (SK-MEL-5 melanoma): 4.09 µM
TGI (SK-MEL-5 melanoma): 16.1 µM
GI50 (SR leukemia): 1.59 µM
TGI (SR leukemia): > 100 µM
GI50 (COLO 205 colon): 3.03 µM
TGI (COLO 205 colon): 10.3 µM
GI50 (HL-60(TB) leukemia): 2.28 µM
TGI (HL-60(TB) leukemia): 9.07 µM
GI50 (MALME-3M melanoma): 1.91 µM
TGI (MALME-3M melanoma): 11.3 µM
GI50 (MCF7 breast): 1.43 µM
TGI (MCF7 breast): 12.8 µM
GI50 (BT-549 breast): 2.09 µM
TGI (BT-549 breast): 10.1 µM
GI50 (HOP-62 NSCLC): 2.45 µM
TGI (HOP-62 NSCLC): 12.2 µM
GI50 (T-47D breast): 1.28 µM
TGI (T-47D breast): 7.23 µM
GI50 (SF-539 CNS): 3.12 µM
TGI (SF-539 CNS): 11.5 µM
GI50 (CCRF-CEM leukemia): 2.65 µM
TGI (CCRF-CEM leukemia): > 100 µM
GI50 (LOX IMVI melanoma): 3.05 µM
TGI (LOX IMVI melanoma): 14.1 µM
GI50 (ACHN renal): 1.49 µM
TGI (ACHN renal): 9.22 µM
GI50 (UACC-257 melanoma): 2.49 µM
TGI (UACC-257 melanoma): 9.3 µM
GI50 (CAKI-1 renal): 2.59 µM
TGI (CAKI-1 renal): 37.4 µM
GI50 (SK-OV-3 ovarian): 2.59 µM
TGI (SK-OV-3 ovarian): 24.3 µM
GI50 (A498 renal): 1.47 µM
TGI (A498 renal): 9.77 µM
GI50 (TK-10 renal): 2.56 µM
TGI (TK-10 renal): > 100 µM
GI50 (SNB-75 CNS): 3.07 µM
TGI (SNB-75 CNS): 33.8 µM
GI50 (NCI-H522 lung): 2.2 µM
TGI (NCI-H522 lung): 11.6 µM
GI50 (MDA-MB-231 breast): 6.45 µM
TGI (MDA-MB-231 breast): > 100 µM
GI50 (IGROV1 ovarian): 2.4 µM
TGI (IGROV1 ovarian): 27.6 µM
GI50 (KM12 colon): 0.578 µM
TGI (KM12 colon): 9.28 µM
GI50 (SF-295 CNS): 2.62 µM
TGI (SF-295 CNS): 10.9 µM
GI50 (OVCAR-4 ovarian): 4.18 µM
TGI (OVCAR-4 ovarian): 89.2 µM
GI50 (OVCAR-8 ovarian): 2.4 µM
TGI (OVCAR-8 ovarian): 11.1 µM
GI50 (SF-268 CNS): 3.11 µM
TGI (SF-268 CNS): 41.6 µM
GI50 (HCT-116 colon): 3.06 µM
TGI (HCT-116 colon): 24.2 µM
GI50 (M14 melanoma): 1.22 µM
TGI (M14 melanoma): 5 µM
GI50 (MDA-MB-468 breast): 2.84 µM
TGI (MDA-MB-468 breast): 22 µM
GI50 (SK-MEL-2 melanoma): 2.84 µM
TGI (SK-MEL-2 melanoma): 10.2 µM
GI50 (HCT-15 colon): 2.12 µM
TGI (HCT-15 colon): 10.4 µM
GI50 (SN12C renal): 2.25 µM
TGI (SN12C renal): 37.2 µM
GI50 (EKVX NSCLC): 3.33 µM
TGI (EKVX NSCLC): 32.2 µM
GI50 (NCI/ADR-RES ovarian): 2.6 µM
TGI (NCI/ADR-RES ovarian): 15.4 µM
GI50 (NCI-H226 lung): 2.52 µM
TGI (NCI-H226 lung): 24.1 µM
GI50 (UO-31 renal): 0.9 µM
TGI (UO-31 renal): 25.8 µM
GI50 (RPMI-8226 leukemia): 1.83 µM
TGI (RPMI-8226 leukemia): 8.29 µM
GI50 (U251 CNS): 2.86 µM
TGI (U251 CNS): 28.2 µM
GI50 (OVCAR-5 ovarian): 2.06 µM
TGI (OVCAR-5 ovarian): 31 µM
GI50 (HCC-2998 colon): 3.98 µM
TGI (HCC-2998 colon): > 100 µM
GI50 (HT29 colon): 2.98 µM
TGI (HT29 colon): > 100 µM
GI50 (SW-620 colon): 2.33 µM
TGI (SW-620 colon): > 100 µM
GI50 (NCI-H23 lung): 2.1 µM
TGI (NCI-H23 lung): 10.6 µM
GI50 (DU-145 prostate): 3.26 µM
TGI (DU-145 prostate): > 100 µM
GI50 (PC-3 prostate): 1.88 µM
TGI (PC-3 prostate): > 100 µM
GI50 (K-562 leukemia): 2.79 µM
TGI (K-562 leukemia): > 100 µM
GI50 (RXF 393 renal): 3.12 µM
TGI (RXF 393 renal): 19.2 µM
GI50 (MOLT-4 leukemia): 1.47 µM
TGI (MOLT-4 leukemia): 5.01 µM
